According to PubChem BioAssay (NCI):
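A five-concentration, 48-hour dose response in 96-well plates underlies each endpoint, interpolated linearly between surrounding concentrations. Abbreviation: GI50, concentration required for 50% inhibition of growth. TGI is the concentration that stops growth completely.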

Key:
Assay in all cases: growth of human tumour cells (NCI), 48 h
ACHN renal = tested on: ACHN renal
EKVX NSCLC = tested on: EKVX NSCLC
HCT-116 colon = tested on: HCT-116 colon
HOP-92 NSCLC = tested on: HOP-92 NSCLC
MALME-3M melanoma = tested on: MALME-3M melanoma
MDA-N = tested on: MDA-N
NCI-H522 lung = tested on: NCI-H522 lung
SK-OV-3 ovarian = tested on: SK-OV-3 ovarian
UO-31 renal = tested on: UO-31 renal
DU-145 prostate = tested on: DU-145 prostate
KM12 colon = tested on: KM12 colon

Row | SMILES | TGI (ACHN renal) [µM] | TGI (EKVX NSCLC) [µM] | TGI (HCT-116 colon) [µM] | TGI (HOP-92 NSCLC) [µM] | TGI (MALME-3M melanoma) [µM] | TGI (MDA-N) [µM] | TGI (NCI-H522 lung) [µM] | GI50 (SK-OV-3 ovarian) [µM] | TGI (SK-OV-3 ovarian) [µM] | GI50 (UO-31 renal) [µM] | TGI (UO-31 renal) [µM] | TGI (DU-145 prostate) [µM] | TGI (KM12 colon) [µM] | GI50 (ACHN renal) [µM] | GI50 (DU-145 prostate) [µM] | GI50 (EKVX NSCLC) [µM] | GI50 (HCT-116 colon) [µM] | GI50 (KM12 colon) [µM] | GI50 (MALME-3M melanoma) [µM]
1 | CCOC(=O)Nc1cc2c(c(N)n1)N=C(c1ccccc1)[C@H](C)N2 | 55 | > 100 | 0.0173 | 47.1 | 16.4 | 0.000122 | < 0.0001 | < 0.0001 | 78.8 | 10.1 | 44.5 |  |  |  |  |  |  |  | 
2 | Nc1ccc(N=Nc2ccc(-c3ccc(O)cc3)cc2)c2ccc(S(=O)(=O)O)cc12 | > 100 | > 100 | > 100 | > 100 | > 100 |  | > 100 |  | > 100 |  | > 100 | > 100 | > 100 |  |  |  |  |  | 
3 | COc1cc(N/N=C/C#N)cc(OC)c1OC | > 10 | > 10 | > 10 |  | > 10 | > 10 | 3.68 |  | > 10 |  | > 10 | > 10 | > 10 |  |  |  |  |  | 
4 | O=C(O)NCc1ccccc1 (tested in a mixture with another compound) | > 100 | > 85.1 | > 100 | 67.2 | 85.9 | > 94.4 | 96.7 |  | > 100 |  | 91.9 | > 100 | > 80.4 |  |  |  |  |  | 
5 | CC(=O)OC/C=C/Cn1ncc(=O)[nH]c1=O | > 100 | > 100 |  | > 100 | > 100 | > 100 | > 100 |  |  |  | > 100 | > 100 | > 100 |  |  |  |  |  | 
6 | CCCCCCCCCCCCCCCC(=O)OCC1CCCN2CCCCC12 (stereo not given) | > 100 | > 100 | > 100 | > 100 | > 100 | > 100 |  |  | > 100 |  | > 100 | > 100 | > 100 |  |  |  |  |  | 
7 | Oc1c2c(c3c4c1N=CC=4CCN=3)-c1c(Br)cc(Br)cc1CCN2 |  | 17.4 | 4.47 | 26.7 |  |  | 4.2 |  | 24.9 |  | 23.1 |  | 9.21 |  |  |  |  |  | 
8 | O=[N+]([O-])c1ccc2c(c1)Nc1c3ccccc3nc3cccc-2c13 | > 60.5 | 48.7 | 28.8 | 18.8 | 19.4 | 15.2 | 33.2 |  | 8.41 |  | 28.9 | 9.43 | > 100 |  |  |  |  |  | 
9 | CC(C)OC(=O)C1=C(O)c2ccccc2S(=O)(=O)N1 | > 100 | > 100 | > 100 |  | > 100 |  | > 100 |  | > 100 |  |  |  | > 100 |  |  |  |  |  | 
10 | Cc1cc2c(cc1C)[n+](=O)c(C#N)c(Cl)n2[O-] | 23.9 | 28.5 | 32 | 30.3 | 30 | 41.6 | 26.3 |  | 70.5 |  | 32.2 | 43.4 |  |  |  |  |  |  | 
11 | CC[C@H](Nc1nc(N)nc(C)c1C#N)c1nc2cccc(NCc3ccc(C(=O)NO)cc3)c2c(=O)n1-c1ccccc1 | 4.67 | 6.84 | 4.34 |  | 4.13 |  |  | 2.05 | 5.03 |  |  | 6.53 | 3.29 | 1.94 | 1.98 | 2.1 | 1.82 | 1.7 | 1.63
12 | Cc1ccc([N+](=O)[O-])cc1NC(=O)C(=O)C(C(=O)c1ccccc1F)C1OC(=O)c2ccccc21 (stereo not given) | > 100 | > 100 | 91.8 | > 100 |  |  | 59.2 |  | > 100 |  | > 100 |  | > 100 |  |  |  |  |  | 
13 | Cc1ccc(S(=O)(=O)N/N=c2\c(C)c(C3=NS(=O)(=O)c4cc(S(N)(=O)=O)c(Cl)cc4N3)oc3c(Cl)cc(Cl)cc23)cc1 | > 100 | > 100 | > 100 | > 100 | > 100 |  |  |  | > 100 |  | > 100 |  | > 100 |  |  |  |  |  | 
14 | Cc1ccc(C[P+]2(c3ccccc3)CCCCC2)cc1 | > 100 | > 100 | > 100 |  | > 100 |  | > 100 |  | > 100 |  | > 100 |  | > 100 |  |  |  |  |  | 
15 | C=C1CC[C@@H](Br)C(C)(C)[C@]12CCC(C)(O)C(Cl)C2 (stereo not given in full) | 36.4 | 40.2 | 32.3 | 46.3 | 86.2 |  | 32 |  | 37.4 |  | 32 |  | 33.8 |  |  |  |  |  | 
16 | N=c1nc2n(cc1F)[C@@H]1O[C@H](CO)[C@@H](O)[C@@H]1O2 | > 34.4 | > 100 | > 100 | > 65.1 | > 34 | > 100 | > 74.7 |  | > 100 |  | > 42.6 | > 100 | > 100 |  |  |  |  |  | 
17 | CC(=O)O[C@H]1CC[C@@]2(C)C(=CC[C@@H]3[C@@H]2CC[C@]2(C)Nc4c(cnn4S(C)(=O)=O)C[C@@H]32)C1 |  |  |  | > 100 | > 100 | > 100 | > 100 |  | > 100 |  | > 100 | > 100 | > 100 |  |  |  |  |  | 
18 | O=C1Nc2ccccc2S/C1=C\c1cccc(C(F)(F)F)c1 | > 100 | > 100 | > 100 | > 100 | > 100 | > 100 | > 100 |  | > 100 |  | > 100 | > 100 | > 100 |  |  |  |  |  | 
19 | O=C(N/C(=C\c1cccc([N+](=O)[O-])c1)c1nc2[nH]c(=S)[nH]c(=O)c2[nH]1)c1ccccc1 | > 100 | > 100 | > 100 | > 100 | > 100 |  | > 100 |  | > 100 |  | > 100 |  | > 100 |  |  |  |  |  | 
20 | NC(=S)Nc1cc(Cl)ccc1Cl | > 100 | > 100 | > 100 | > 100 | > 100 |  | > 100 |  | > 100 |  | > 100 |  | > 100 |  |  |  |  |  | 
21 | O=C(O)CCSCc1ccc(I)cc1 | > 100 | > 100 | > 100 | > 100 | > 100 | > 100 | > 100 |  | > 100 |  | > 100 | > 100 | > 100 |  |  |  |  |  | 
22 | O=C1Nc2ccccc2S/C1=C\c1ccccc1C(F)(F)F | > 100 | > 100 | > 100 | > 100 | > 100 | > 100 | > 100 |  | > 100 |  | > 100 | > 100 | > 100 |  |  |  |  |  | 
23 | CCC1CN2CCC1CC2 (stereo not given) |  | > 100 | > 100 |  | > 100 |  | > 100 |  | > 100 |  | > 100 |  | > 100 |  |  |  |  |  | 
